Measured values reported in the supplement of paper PMC10307832.

Columns and labels:
Test in all cases: relative viability (nuclei count vs DMSO), 5 days (fraction); higher = more cells survive
[1] = compound: CCOC1=CC=CC=C1N=NC2=C(NN(C2=O)C3=NC(=CS3)C4=CC=CC=C4)C [BAM7] + CC(C)C[C@H](NC(=O)[C@H](Cc1ccccc1)NC(=O)c1cnccn1)B(O)O [Bortezomib] (partner 0.002 µM)
Method in brief: (§1)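 After 5 days of treatment, lung cancer cells in 1536-well plates were fixed and stained in a single step (final 0.05% Triton X-100, 1% formaldehyde, 1 ug/ml Hoechst) and their nuclei counted on 4× images. Treatment had been applied by pin tool the day after seeding as one drug alone or as a fixed anchor-drug dose with five library-drug doses (not always all listed) in √10 steps. Relative viability is the nuclei count of treated wells divided by that of vehicle wells, and values are medians of duplicate plates.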

[2] = compound: CCn1c(-c2nonc2N)nc2c(C#CC(C)(C)O)ncc(OC[C@H]3CCCNC3)c21 + NC(=O)Nc1cc(-c2cccc(F)c2)sc1C(=O)N[C@H]1CCCNC1 [AZD7762] (partner 0.2 µM)
Method in brief: as §1

[3] = compound: CCOC1=CC=CC=C1N=NC2=C(NN(C2=O)C3=NC(=CS3)C4=CC=CC=C4)C [BAM7] + O=C(CCCCCCC(=O)Nc1ccccc1)NO [Vorinostat] (partner 1 µM)
Method in brief: as §1

[4] = compound: CCn1c(-c2nonc2N)nc2c(C#CC(C)(C)O)ncc(OC[C@H]3CCCNC3)c21 + N=C(N)NC(=N)NCCc1ccccc1 [Phenformin] (partner 250 µM)
Method in brief: as §1

| Cell Line | relative viability ([1]; first compound 0.5 µM) | relative viability ([1]; first compound 5 µM) | relative viability ([1]; first compound 15.81 µM) | relative viability ([1]; first compound 50 µM) | relative viability ([2]; first compound 0.01 µM) | relative viability ([2]; first compound 0.03162 µM) | relative viability ([2]; first compound 0.1 µM) | relative viability ([2]; first compound 0.3162 µM) | relative viability ([2]; first compound 1 µM) | relative viability ([3]; first compound 0.5 µM) | relative viability ([3]; first compound 5 µM) | relative viability ([3]; first compound 15.81 µM) | relative viability ([3]; first compound 50 µM) | relative viability ([4]; first compound 0.01 µM) | relative viability ([4]; first compound 0.03162 µM) | relative viability ([4]; first compound 0.1 µM) | relative viability ([4]; first compound 0.3162 µM) | relative viability ([4]; first compound 1 µM) |
| --- | --- | --- | --- | --- | --- | --- | --- | --- | --- | --- | --- | --- | --- | --- | --- | --- | --- | --- |
| LCLC-103H | 1.15 | 1.1 | 1.1 | 1.18 | 0.752 | 0.862 | 0.743 | 0.668 | 0.696 | 0.781 | 0.804 | 0.764 | 0.781 | 0.323 | 0.355 | 0.33 | 0.329 | 0.327 |
| PC-3 [JPC-3] | 0.824 | 0.751 | 0.782 | 0.585 | 0.724 | – | 0.796 | 0.692 | 0.859 | 0.754 | 0.793 | 0.775 | 0.638 | 0.504 | 0.451 | 0.469 | 0.463 | 0.474 |
| BEN | 0.823 | 0.825 | 1.02 | 0.976 | 0.629 | 0.696 | 0.562 | 0.686 | 0.696 | 0.573 | 0.61 | 0.523 | 0.544 | 0.276 | 0.292 | 0.28 | 0.297 | 0.287 |
| NCI-H1666 | 0.852 | 0.682 | 0.729 | 0.998 | 0.806 | 0.827 | 0.839 | 0.804 | 0.876 | 1.08 | 0.944 | 1.01 | 1.05 | 0.614 | 0.539 | 0.539 | 0.987 | 0.534 |
| LC-2-ad | 1.05 | 0.974 | 0.957 | 1 | 0.86 | 0.874 | 0.885 | 0.839 | 0.867 | 0.695 | 0.737 | 0.707 | 0.656 | 0.571 | 0.523 | 0.556 | 0.537 | 0.614 |
| ChaGo-K-1 | 0.861 | 1.09 | 1.14 | 0.969 | 0.87 | 0.885 | 0.868 | 0.836 | 0.758 | 0.627 | 0.787 | 0.701 | 0.742 | 0.462 | 0.508 | 0.502 | 0.438 | 0.469 |
| NCI-H1975 | 0.356 | 0.379 | – | 0.386 | 0.663 | 0.694 | 0.811 | 0.695 | 0.641 | 0.681 | 0.713 | 0.631 | 0.616 | 0.4 | 0.394 | 0.393 | 0.389 | 0.352 |
| NCI-H1993 | 0.843 | 0.836 | 0.472 | 1.09 | 0.836 | 0.954 | 0.923 | 0.738 | 0.725 | 0.723 | 0.765 | 0.71 | 0.696 | 0.485 | 0.47 | 0.5 | 0.478 | 0.495 |
| RERF-LC-KJ | 1.05 | 1.01 | 0.948 | 0.972 | 1 | 1.07 | 0.949 | 0.867 | 1.05 | 0.62 | 0.601 | 0.485 | 0.416 | 0.391 | 0.408 | 0.438 | 0.356 | 0.416 |
| NCI-H23 | 1.23 | 1.05 | 0.933 | 1.12 | 0.222 | 0.268 | 0.228 | 0.208 | 0.265 | 0.559 | 0.674 | 0.629 | 0.792 | 0.729 | 0.783 | 0.817 | 0.8 | 0.781 |
| HCC-366 | 1.09 | 1.11 | 1.08 | 1.08 | 0.332 | 0.239 | 0.287 | 0.273 | 0.241 | 0.301 | 0.28 | 0.356 | 0.344 | 0.573 | 0.606 | 0.637 | 0.62 | 0.617 |
| EMC-BAC-2 | 1.04 | 1.16 | 1.11 | 1.17 | 1.11 | 1.04 | 1.08 | 0.94 | 1.17 | 0.478 | 0.485 | 0.658 | 0.483 | 0.487 | 0.491 | 0.578 | 0.502 | 0.52 |
| NCI-H2405 | 1.02 | 1.04 | 1.01 | 0.991 | 0.773 | 0.77 | 0.792 | 0.731 | 0.721 | 1.02 | 1.06 | 1.18 | 0.917 | 0.402 | 0.385 | 0.295 | 0.355 | 0.344 |
| EPLC-272H | 0.893 | 0.969 | 0.827 | 0.942 | 0.198 | 0.171 | 0.17 | 0.192 | 0.211 | 0.623 | 0.427 | 0.477 | 0.358 | 0.275 | 0.333 | 0.32 | 0.291 | 0.255 |
| NCI-H1915 | 0.988 | 1.01 | 1.09 | 1.03 | 0.699 | 0.698 | 0.672 | 0.648 | 0.607 | 0.487 | 0.564 | 0.537 | 0.515 | 0.384 | 0.385 | 0.36 | 0.357 | 0.36 |
| NCI-H596 | 1.01 | 1.13 | 0.889 | 1.25 | 1.18 | – | 1.12 | 1.21 | 1.06 | 0.646 | 0.716 | 0.558 | 0.7 | 0.74 | 0.7 | 0.727 | 0.744 | 0.761 |
| NCI-H322M | 1.2 | 1.2 | 1.05 | 1.02 | 0.591 | 0.661 | 0.562 | 0.516 | 0.625 | 0.884 | 0.868 | 1.05 | 0.913 | 0.717 | 0.727 | 0.677 | 0.7 | 0.744 |
